The text below walks through data of patent US20070203073A1 (priority 2005, published 2007).

This test has as its system SARS-CoV S protein. It is filed as cell-based.

Consider `CC(=O)N[C@@H](CC(C)C)C(=O)N[C@@H](CC(C)C)C(=O)N[C@H](C=O)CCCNC(=N)N` [leupeptin], for which the “effect on cell-cell fusion” value was “reduced”.
